Reference: patent US12226424B2, “Target protein degradation compounds, their anti-tumor use, their intermediates and use of intermediates” (ShanghaiTech University, priority 2018, dated 2025)
Like-named read-outs stand apart in the source and are kept apart here.

Experiments:
CDK4/6 protein [1] = test: Western-blot determination of CDK4/6 protein degradation (DC50) in Jurkat cells; assay type: cell-based; details: read-out: DC50(nM)/Jurkat cell line
CDK4/6 protein [2] = test: Western-blot determination of CDK4/6 protein degradation (DC50) in T-47D cells; assay type: cell-based, human; details: 24 h drug treatment, read-out: DC50(nM)/T-47D cell line
MDA-MB-231 cells = test: Half inhibitory concentration (IC50) on BET-expressing tumor cells, CCK-8, MDA-MB-231; assay type: cell-based; details: Homo sapiens, 48/72 h, read-out: IC50 (nM)/MDA-MB-231 cell line
Protocol: (§1) BET-expressing cells MV-4-11 cells (human B granulocytic leukemia cells), MDA-MB-231 cells (human breast cancer cells), MDA-MB-468 cells (human breast cancer cells), MDA-MB-453 Cells (human breast cancer cells), MM1S cells (myeloma (immunoglobulin A lambda), B lymphoblasts) and SR cells (human large cell immunoblast lymphoma) were purchased from the American Type Culture Collection (ATCC).
(§2) The cells used in this present disclosure were cultured in a 37° C. incubator containing 5% CO2. The complete cell culture medium was RPMI 1640/IMDM/DMEM medium with 10% fetal bovine serum, and the final concentrations of penicillin and streptomycin were 100 U/mL, respectively. All cells were tested negative for mycoplasma with mycoplasma detection kit before the experiment.
(§3) Determination of the Half Inhibitory Concentration (IC50) of PROTAD Compounds on Tumor Cells
(§4) MV-411 cells, MM1S cells and SR cells were seeded in 100 μL IMDM/RPMI1640/DMEM complete medium at a density of 15000/10000 cells/well; MDA-MB-231 cells, MDA-MB-468 cells, and MDA-MB453 cells were seeded in 100 μL IMDM/RPMI1640/DMEM complete medium at a density of 3000/5000 cells/well, respectively. 100 μL of the inoculated cells were treated with 0.5 μL diluted PROTAD compounds of the present disclosure to be tested at 10 successively decreasing concentrations (starting at the highest concentration of 10 μM; 5-fold serial dilutions). After the cells were treated with the tested drugs 48/72 h, the cell viability was determined according to the CCK-8 reagent manual. The negative control was DMSO, and the positive control was a commercial inhibitor. After CCK-8 treatment for 2 h, the value of O.D.450 was measured using a microplate reader.

MDA-MB-453 cells = test: Half inhibitory concentration (IC50) on BET-expressing tumor cells, CCK-8, MDA-MB-453; assay type: cell-based, human; details: 48/72 h, read-out: IC50 (nM)/MDA-MB-453 cell line
Protocol: as §1, §2, §3, §4

MM1S cells = test: Half inhibitory concentration (IC50) on BET-expressing tumor cells, CCK-8, MM1S; assay type: cell-based; details: Homo sapiens, MM1.S, 48/72 h, read-out: IC50 (nM)/MM1S cell line
Protocol: as §1, §2, §3, §4

MV-4-11 cells = test: Half inhibitory concentration (IC50) on BET-expressing tumor cells, CCK-8, MV-4-11; details: Homo sapiens, MV4-11, read-out: IC50 (nM)/MV-4-11 cell line, MV-4-11 cells, 48/72 h, CCK-8
BRD2 = BRD2 (Homo sapiens, UniProt P25440); test: Western-blot half-degradation concentration (DC50) / degradation of BRD2 in MV-4-11 cells; assay type: cell-based; details: 24 hours, Western-blot, read-out: DC50 (nM)/MV-4-11 cell line BRD2 degradation
Text: Western-Blot Determination of the Half-Degradation Concentration (DC50) of the PROTAD Compounds on the Target Proteins
The supernatant was aspirated as total cell protein extracted.

MDA-MB-468 cells = test: Half inhibitory concentration (IC50) on BET-expressing tumor cells, CCK-8, MDA-MB-468; assay type: cell-based; details: Homo sapiens, 48/72 h, read-out: IC50 (nM)/MDA-MB-468 cell line
Protocol: as §1, §2, §3, §4

SR cells = test: Half inhibitory concentration (IC50) on BET-expressing tumor cells, CCK-8, SR; assay type: cell-based; details: Homo sapiens, 48/72 h, read-out: IC50 (nM)/SR cell line
Protocol: as §1, §2, §3, §4

[3] = system: MDA-MB-436 cells (PARP-positive); test: Half inhibitory concentration (IC50) on PARP-positive tumor cells, CCK-8, MDA-MB-436; assay type: cell-based; details: Homo sapiens, 72 hours, read-out: IC50 (μM)/MDA-MB-436 cell line
Protocol: PARP-positive cells MDA-MB-436 cells (human breast cancer cells) were purchased from the American Type Culture Collection (ATCC).
as §2, with “DMEM” for “RPMI 1640/IMDM/DMEM”
Determination of Half Inhibitory Concentration (IC50) of PROTAD Compounds on Tumor Cells
MDA-MB-436 cells were seeded in 100 μL DMEM complete medium at a density of 3500 cells/well. 100 μL of the inoculated cells were treated with 0.5 μL diluted PROTAD compounds of the present disclosure to be tested at 10 successively decreasing concentrations (starting at the highest concentration of 50 μM; 3-fold serial dilutions). After the cells were treated with the tested drugs for 72 hours, cell viability was determined according to the CCK-8 reagent operating instructions. The negative control was DMSO, and the positive control was a commercial inhibitor. After CCK-8 treatment for 2 h, the value of O.D.450 was measured using a microplate reader.

[4] = Homo sapiens, MDA-MB-453, MDA-MB-453 cells

Sequence of BRD2 (P25440 whole entry): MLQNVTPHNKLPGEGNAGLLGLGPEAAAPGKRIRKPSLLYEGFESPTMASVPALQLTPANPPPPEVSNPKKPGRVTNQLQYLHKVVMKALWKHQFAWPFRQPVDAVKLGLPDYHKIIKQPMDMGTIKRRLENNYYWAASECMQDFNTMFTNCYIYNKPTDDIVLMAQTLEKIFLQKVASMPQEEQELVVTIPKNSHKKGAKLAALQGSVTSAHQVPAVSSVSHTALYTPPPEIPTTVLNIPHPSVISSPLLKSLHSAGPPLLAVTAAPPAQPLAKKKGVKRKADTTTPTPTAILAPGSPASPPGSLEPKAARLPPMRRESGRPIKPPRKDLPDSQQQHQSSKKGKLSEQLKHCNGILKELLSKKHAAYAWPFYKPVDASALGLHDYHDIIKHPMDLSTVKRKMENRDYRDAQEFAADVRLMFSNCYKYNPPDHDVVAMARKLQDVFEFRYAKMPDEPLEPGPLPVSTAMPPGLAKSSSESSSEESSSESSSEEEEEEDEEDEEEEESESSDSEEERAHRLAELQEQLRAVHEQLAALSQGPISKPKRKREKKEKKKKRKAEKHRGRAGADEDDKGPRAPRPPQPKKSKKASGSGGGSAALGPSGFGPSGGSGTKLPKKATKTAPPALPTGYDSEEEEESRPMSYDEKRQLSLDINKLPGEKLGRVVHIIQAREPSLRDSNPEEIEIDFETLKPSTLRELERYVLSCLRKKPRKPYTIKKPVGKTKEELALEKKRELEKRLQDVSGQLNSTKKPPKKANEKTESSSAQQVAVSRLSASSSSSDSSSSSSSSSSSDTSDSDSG

Row | SMILES | DC50 (CDK4/6 protein [1]) | DC50 (CDK4/6 protein [2]) | IC50 (MDA-MB-231 cells) | IC50 (MDA-MB-453 cells; [4]) | IC50 (MDA-MB-453 cells; MDA-MB-453 cells) | IC50 (MM1S cells) | IC50 (MV-4-11 cells) | IC50 (MDA-MB-468 cells) | further results
1 | CC(=O)c1c(C)c2cnc(Nc3ccc(N4CCN(C(=O)CSc5cccc6c5C(=O)N(C5CCC(=O)NC5=O)C6=O)CC4)cn3)nc2n(C2CCCC2)c1=O (centres unmarked) [SIAIS151046, 4-((2-(4-(6-((6-acetyl-8-cyclopentyl-5-methyl-7-oxo-7,8-dihydropyrido[2,3-d]pyrimidin-2-yl)amino)pyridin-3-yl)piperazin-1-yl)-2-oxoethyl)thio)-2-(2,6-dioxopiperidin-3-yl)isoindoline-1,3-dione] | 1 to 10 nM | 1 to 10 nM | – | – | – | – | – | – | –
2 | Cc1sc2c(c1C)C(c1ccc(Cl)cc1)=N[C@@H](CC(=O)NCCCCSc1cccc3c1CN(C1CCC(=O)NC1=O)C3=O)c1nnc(C)n1-2 (stereo partly drawn) [SIAIS171141, 2-((S)-4-(4-chlorophenyl)-2,3,9-trimethyl-6H-thieno[3,2-f][1,2,4]triazolo[4,3-a][1,4]diazepin-6-yl)-N-(4-((2-(2,6-dioxopiperidin-3-yl)-1-oxoisoindolin-4-yl)thio)butyl)acetamide] | – | – | 19.9 ± 9.2 nM | 112 nM | 98 nM | 0.24 nM | 0.25 ± 0.2 nM | 10 ± 2 nM | IC50 (SR cells): 3.91 nM
3 | O=C1CCC(N2C(=O)c3cccc(SCCCCC(=O)N4CCN(C(=O)c5cc(Cc6n[nH]c(=O)c7ccccc67)ccc5F)CC4)c3C2=O)C(=O)N1 (centres unmarked) [SIAIS180066, 2-(2,6-dioxopiperidin-3-yl)-4-((5-(4-(2-fluoro-5-((4-oxo-3,4-dihydrophthalazin-1-yl)methyl)benzoyl)piperazin-1-yl)-5-oxopentyl)thio)isoindoline-1,3-dione] | – | – | – | – | – | – | – | – | IC50 [3]: 3.57 µM
4 | O=C1CCC(N2C(=O)c3cccc(SCCCCCC(=O)N4CCN(C(=O)c5cc(Cc6n[nH]c(=O)c7ccccc67)ccc5F)CC4)c3C2=O)C(=O)N1 (centres unmarked) [SIAIS180067, 2-(2,6-dioxopiperidin-3-yl)-4-((6-(4-(2-fluoro-5-((4-oxo-3,4-dihydrophthalazin-1-yl)methyl)benzoyl)piperazin-1-yl)-6-oxohexyl)thio)isoindoline-1,3-dione] | – | – | – | – | – | – | – | – | IC50 [3]: 2.9 µM
5 | O=C1CCC(N2C(=O)c3cccc(SCCCCCCC(=O)N4CCN(C(=O)c5cc(Cc6n[nH]c(=O)c7ccccc67)ccc5F)CC4)c3C2=O)C(=O)N1 (centres unmarked) [SIAIS180068, 2-(2,6-dioxopiperidin-3-yl)-4-((7-(4-(2-fluoro-5-((4-oxo-3,4-dihydrophthalazin-1-yl)methyl)benzoyl)piperazin-1-yl)-7-oxoheptyl)thio)isoindoline-1,3-dione] | – | – | – | – | – | – | – | – | IC50 [3]: 2.09 µM
6 | CC(=O)c1c(C)c2cnc(Nc3ccc(N4CCN(C(=O)COCCSc5cccc6c5C(=O)N(C5CCC(=O)NC5=O)C6=O)CC4)cn3)nc2n(C2CCCC2)c1=O (centres unmarked) [SIAIS184091, 4-((2-(2-(4-(6-((6-acetyl-8-cyclopentyl-5-methyl-7-oxo-7,8-dihydropyrido[2,3-d]pyrimidin-2-yl)amino)pyridin-3-yl)piperazin-1-yl)-2-oxoethoxy)ethyl)thio)-2-(2,6-dioxopiperidin-3-yl)isoindoline-1,3-dione] | 1 to 10 nM | 1 to 10 nM | – | – | – | – | – | – | –
7 | CC(=O)c1c(C)c2cnc(Nc3ccc(N4CCN(C(=O)CCCCSc5cccc6c5CN(C5CCC(=O)NC5=O)C6=O)CC4)cn3)nc2n(C2CCCC2)c1=O (centres unmarked) [SIAIS184092, 3-(4-((5-(4-(6-((6-acetyl-8-cyclopentyl-5-methyl-7-oxo-7,8-dihydropyrido[2,3-d]pyrimidin-2-yl)amino)pyridin-3-yl)piperazin-1-yl)-5-oxopentyl)thio)-1-oxoisoindolin-2-yl)piperidine-2,6-dione] | < 1 nM | < 0.1 nM | – | – | – | – | – | – | –

Second part, led by results:

Row | DC50 (CDK4/6 protein [1]) | DC50 (CDK4/6 protein [2]) | IC50 (MDA-MB-231 cells) | IC50 (MDA-MB-453 cells; [4]) | IC50 (MDA-MB-453 cells; MDA-MB-453 cells) | IC50 (MM1S cells) | IC50 (MV-4-11 cells) | IC50 (MDA-MB-468 cells) | SMILES | further results
8 | – | – | 88 ± 38 nM | 154 nM | 226 nM | 5.36 nM | 6.2 ± 4.1 nM | 52.5 ± 24 nM | Cc1sc2c(c1C)C(c1ccc(Cl)cc1)=N[C@@H](CC(=O)NCCCCSc1cccc3c1C(=O)N(C1CCC(=O)NC1=O)C3=O)c1nnc(C)n1-2 (stereo partly drawn) [SIAIS171037, 2-((S)-4-(4-chlorophenyl)-2,3,9-trimethyl-6H-thieno[3,2-f][1,2,4]triazolo[4,3-a][1,4]diazepin-6-yl)-N-(4-((2-(2,6-dioxopiperidin-3-yl)-1,3-dioxoisoindolin-4-yl)thio)butyl)acetamide] | DC50 (BRD2): < 0.4 nM
9 | – | – | 182 ± 89 nM | 135 nM | 230 nM | 7.77 nM | 6.2 ± 3 nM | 61 ± 8 nM | Cc1sc2c(c1C)C(c1ccc(Cl)cc1)=N[C@@H](CC(=O)NCCCCCSc1cccc3c1C(=O)N(C1CCC(=O)NC1=O)C3=O)c1nnc(C)n1-2 (stereo partly drawn) [SIAIS171038, 2-((S)-4-(4-chlorophenyl)-2,3,9-trimethyl-6H-thieno[3,2-f][1,2,4]triazolo[4,3-a][1,4]diazepin-6-yl)-N-(5-((2-(2,6-dioxopiperidin-3-yl)-1,3-dioxoisoindolin-4-yl)thio)pentyl)acetamide] | DC50 (BRD2): < 0.4 nM
10 | – | – | 17.7 ± 7.6 nM | 37.4 nM | 37.1 nM | 0.31 nM | 0.08 ± 0.03 nM | 6.1 ± 0.4 nM | Cc1sc2c(c1C)C(c1ccc(Cl)cc1)=N[C@@H](CC(=O)NCCCCCSc1cccc3c1CN(C1CCC(=O)NC1=O)C3=O)c1nnc(C)n1-2 (stereo partly drawn) [SIAIS171142, 2-((S)-4-(4-chlorophenyl)-2,3,9-trimethyl-6H-thieno[3,2-f][1,2,4]triazolo[4,3-a][1,4]diazepin-6-yl)-N-(5-((2-(2,6-dioxopiperidin-3-yl)-1-oxoisoindolin-4-yl)thio)pentyl)acetamide] | IC50 (SR cells): 2.42 nM
11 | – | – | 313 ± 309 nM | – | – | 0.32 nM | 0.3 nM | 376 ± 55 nM | Cc1sc2c(c1C)C(c1ccc(Cl)cc1)=N[C@@H](CC(=O)NCCCCCCSc1cccc3c1CN(C1CCC(=O)NC1=O)C3=O)c1nnc(C)n1-2 (stereo partly drawn) [SIAIS171143, 2-((S)-4-(4-chlorophenyl)-2,3,9-trimethyl-6H-thieno[3,2-f][1,2,4]triazolo[4,3-a][1,4]diazepin-6-yl)-N-(6-((2-(2,6-dioxopiperidin-3-yl)-1-oxoisoindolin-4-yl)thio)hexyl)acetamide] | IC50 (SR cells): 1.48 nM
12 | 1 to 10 nM | 1 to 10 nM | – | – | – | – | – | – | CC(=O)c1c(C)c2cnc(Nc3ccc(N4CCN(C(=O)CCCCCCSc5cccc6c5C(=O)N(C5CCC(=O)NC5=O)C6=O)CC4)cn3)nc2n(C2CCCC2)c1=O (centres unmarked) [SIAIS184090, 4-((7-(4-(6-((6-acetyl-8-cyclopentyl-5-methyl-7-oxo-7,8-dihydropyrido[2,3-d]pyrimidin-2-yl)amino)pyridin-3-yl)piperazin-1-yl)-7-oxoheptyl)thio)-2-(2,6-dioxopiperidin-3-yl)isoindoline-1,3-dione] | –
